In brackets after ≈: the same amount, converted by molar mass. Where two headings read alike, the source gives them in different places.
How the values were obtained:
[1] = tested on: Pseudomonas aeruginosa ATCC27853; experiment: MIC, doubling dilution method (NCCLS), Muller-Hinton agar; type: cell-based; conditions: 20 hours at 37°C
Protocol: (§1) Antibiotic activities of the crystalline compound obtained in Example 1 were evaluated by way of determining the minimum inhibitory concentration(MIC) for the microorganisms listed in Table 2 in vitro.
(§2) The […] was determined in accordance with the doubling dilution method(NCCLS). After the test compound was dispersed in a Muller-Hinton agar medium, the medium was inoculated with 2µl of a test strain having 10⁷ CFU/ml and, then, incubated for 20 hours at 37°C.
(§3) For comparison, antibiotic abilities of the amorphous formula(I) cephalosporin obtained in Preparation Example were also determined as above; and are shown in Table 2.

[2] = tested on: Shigella flexneri ATCC11836; experiment: as above; type: cell-based; conditions: 20 hours at 37°C
Protocol: as §1, §2, §3

[3] = tested on: Streptococcus epidermidis ATCC12228; experiment: as above; type: cell-based; conditions: 20 hours at 37°C
Protocol: as §1, §2, §3

[4] = tested on: Streptococcus faecalis ATCC29212; experiment: as above; type: cell-based; conditions: 20 hours at 37°C
Protocol: as §1, §2, §3

[5] = tested on: Serratia marcescens ATCC27117; experiment: as above; type: cell-based; conditions: 20 hours at 37°C
Protocol: as §1, §2, §3

[6] = tested on: Staphylococcus aureus ATCC10537; experiment: as above; type: cell-based; conditions: 20 hours at 37°C
Protocol: as §1, §2, §3

[7] = tested on: Escherichia coli ATCC25922; experiment: as above; type: cell-based; conditions: 20 hours at 37°C
Protocol: as §1, §2, §3

[8] = tested on: Acinetobacter calcoaceticus ATCC15473; experiment: as above; type: cell-based; conditions: 20 hours at 37°C
Protocol: as §1, §2, §3

[9] = tested on: Proteus vulgaris ATCC6059; experiment: as above; type: cell-based; conditions: 20 hours at 37°C
Protocol: as §1, §2, §3

[10] = tested on: Bacillus cereus ATCC11778; experiment: as above; type: cell-based; conditions: 20 hours at 37°C
Protocol: as §1, §2, §3

[11] = tested on: Klebsiella pneumoniae ATCC10031; experiment: as above; type: cell-based; conditions: 20 hours at 37°C
Protocol: as §1, §2, §3

[12] = tested on: Citrobacter freundii ATCC8090; experiment: as above; type: cell-based; conditions: 20 hours at 37°C
Protocol: as §1, §2, §3

[13] = tested on: Salmonella typhimurium ATCC14028; experiment: as above; type: cell-based; conditions: 20 hours at 37°C
Protocol: as §1, §2, §3

[14] = tested on: Enterobacter aerogenes ATCC29751; experiment: as above; type: cell-based; conditions: 20 hours at 37°C
Protocol: as §1, §2, §3

[15] = tested on: Enterobacter cloacae ATCC27508; experiment: as above; type: cell-based; conditions: 20 hours at 37°C
Protocol: as §1, §2, §3

[16] = tested on: Pseudomonas aeruginosa ATCC25619; experiment: as above; type: cell-based; conditions: 20 hours at 37°C
Protocol: as §1, §2, §3

[17] = tested on: Micrococcus luteus ATCC9341; experiment: as above; type: cell-based; conditions: 20 hours at 37°C
Protocol: as §1, §2, §3

[18] = tested on: Shigella sonnei ATCC11060; experiment: as above; type: cell-based; conditions: 20 hours at 37°C
Protocol: as §1, §2, §3

[19] = tested on: Pseudomonas aeruginosa ATCC10145; experiment: as above; type: cell-based; conditions: 20 hours at 37°C
Protocol: as §1, §2, §3

[20] = tested on: Escherichia coli ATCC10536; experiment: as above; type: cell-based; conditions: 20 hours at 37°C
Protocol: as §1, §2, §3

[21] = tested on: Staphylococcus aureus ATCC6538p; experiment: as above; type: cell-based; conditions: 20 hours at 37°C
Protocol: as §1, §2, §3

[22] = tested on: Proteus mirabilis ATCC25933; experiment: as above; type: cell-based; conditions: 20 hours at 37°C
Protocol: as §1, §2, §3

[23] = tested on: Morganella morganii ATCC8076h; experiment: as above; type: cell-based; conditions: 20 hours at 37°C
Protocol: as §1, §2, §3

[24] = tested on: Providencia rettgeri ATCC9250; experiment: as above; type: cell-based; conditions: 20 hours at 37°C
Protocol: as §1, §2, §3

[25] = Heat-stability test: storage at 50°C, decomposition by liquid chromatography; type: physicochemical
Protocol: The crystalline hydrate of the compound obtained in Example 1 and the amorphous cephalosporin obtained in Preparation Example were stored at 50°C. After the respective periods of one week and two weeks, the heat stability of the compounds was measured by determining their level of decomposition through the use of liquid chromatography.

[26] = tested on: Bacillus megaterium ATTCC9885; experiment: MIC, doubling dilution method (NCCLS), Muller-Hinton agar; type: cell-based; conditions: Priestia megaterium, 20 hours at 37°C
Protocol: as §1, §2, §3

Question: What does the source list for `Cc1c(N)nc(SCC2=C(C(=O)[O-])N3C(=O)C(NC(=O)/C(=N\OC(C)(C)C(=O)O)c4csc(N)n4)[C@H]3SC2)[n+](N)c1N` (stereo partly shown) [Amorphous Compound, 7-[(Z)-2-(2aminothiazole-4-yl)-2-(2-carboxyprop-2-oxyimino)acetamido]-3-(5-methyl-1,4,6-triamino-pyrimidinium-2-yl)thiomethyl-3-cephem-4-carboxylate, reference compound]?
Answer: MIC [1]: 2 µg/mL (≈ 3.13 µM); MIC [2]: 0.031 µg/mL (≈ 0.0485 µM); MIC [3]: 2 µg/mL (≈ 3.13 µM); MIC [4]: >128 µg/mL; MIC [5]: 0.13 µg/mL (≈ 0.204 µM); MIC [6]: 2 µg/mL (≈ 3.13 µM); MIC [7]: 0.13 µg/mL (≈ 0.204 µM); MIC [8]: 4 µg/mL (≈ 6.26 µM); MIC [9]: 0.063 µg/mL (≈ 0.0986 µM); MIC [10]: 128 µg/mL (≈ 200 µM); MIC [11]: 0.063 µg/mL (≈ 0.0986 µM); MIC [12]: 0.063 µg/mL (≈ 0.0986 µM); MIC [13]: 0.13 µg/mL (≈ 0.204 µM); MIC [14]: 1 µg/mL (≈ 1.57 µM); MIC [15]: 0.016 µg/mL (≈ 0.0251 µM); MIC [16]: 2 µg/mL (≈ 3.13 µM); MIC [17]: 0.5 µg/mL (≈ 0.783 µM); MIC [18]: 0.063 µg/mL (≈ 0.0986 µM); MIC [19]: 2 µg/mL (≈ 3.13 µM); MIC [20]: 0.063 µg/mL (≈ 0.0986 µM); MIC [21]: 4 µg/mL (≈ 6.26 µM); MIC [22]: 0.031 µg/mL (≈ 0.0485 µM); MIC [23]: <=0.008 mcg/ml; MIC [24]: <=0.008 mcg/ml; Decomposition Rate ([25]; storage period (50°C): 0): 0%; Decomposition Rate ([25]; storage period (50°C): 1 week): 4.2%; Decomposition Rate ([25]; storage period (50°C): 2 week): 5.2%

Question: With `Cc1c(N)nc(SCC2=C(C(=O)[O-])N3C(=O)C(NC(=O)/C(=N\OC(C)(C)C(=O)O)c4csc(N)n4)[C@H]3SC2)[n+](N)c1N` (stereo partly shown) [Test Compound, 7-[(Z)-2-(2-aminothiazole-4-yl)-2-(2-carboxyprop-2-oxyimino)acetamido]-3-(5-methyl-1,4,6-triaminopyrimidinium-2-yl)thiomethyl-3-cephem-4-carboxylate] as the compound, how does the MIC [1] read?
Answer: 0.5 µg/mL (≈ 0.783 µM)

Question: And the MIC ([2]; Shigella flexneri, ATCC11836, 20 h, read-out: MIC)?
Answer: 0.016 µg/mL (≈ 0.0251 µM)

Question: What about the MIC ([3]; Streptococcus, ATCC12228, 20 h, read-out: MIC) of the same compound?
Answer: 1 µg/mL (≈ 1.57 µM)

Question: And the MIC ([4]; Enterococcus faecalis, read-out: MIC)?
Answer: > 128 µg/mL

Question: And the MIC [5]?
Answer: 0.063 µg/mL (≈ 0.0986 µM)

Question: What about the MIC ([6]; read-out: MIC) of the same compound?
Answer: 2 µg/mL (≈ 3.13 µM)

Question: What about the MIC [7] of the same compound?
Answer: 0.031 µg/mL (≈ 0.0485 µM)

Question: And the MIC [8]?
Answer: 1 µg/mL (≈ 1.57 µM)

Question: And the MIC [9]?
Answer: 0.031 µg/mL (≈ 0.0485 µM)

Question: And the MIC ([10]; Bacillus cereus, ATCC11778, 20 h, read-out: MIC)?
Answer: 64 µg/mL (≈ 100 µM)

Question: And the MIC [11]?
Answer: 0.016 µg/mL (≈ 0.0251 µM)

Question: What about the MIC [12] of the same compound?
Answer: 0.016 µg/mL (≈ 0.0251 µM)

Question: What about the MIC [13] of the same compound?
Answer: 0.063 µg/mL (≈ 0.0986 µM)

Question: And the MIC [26]?
Answer: 0.13 µg/mL (≈ 0.204 µM)

Question: And the MIC [14]?
Answer: 0.25 µg/mL (≈ 0.391 µM)

Question: And the MIC ([15]; Enterobacter cloacae, ATCC27508, 20 h, read-out: MIC)?
Answer: ≤ 0.008 µg/mL

Question: What about the MIC [16] of the same compound?
Answer: 0.5 µg/mL (≈ 0.783 µM)

Question: What about the MIC ([17]; Micrococcus luteus, ATCC9341, 20 h, read-out: MIC) of the same compound?
Answer: 0.25 µg/mL (≈ 0.391 µM)

Question: And the MIC [18]?
Answer: 0.031 µg/mL (≈ 0.0485 µM)

Question: And the MIC ([19]; Pseudomonas aeruginosa, ATCC10145, 20 h, read-out: MIC)?
Answer: 1 µg/mL (≈ 1.57 µM)

Question: And the MIC [20]?
Answer: 0.031 µg/mL (≈ 0.0485 µM)

Question: And the MIC ([21]; read-out: MIC)?
Answer: 4 µg/mL (≈ 6.26 µM)

Question: And the MIC ([22]; Proteus mirabilis, ATCC25933, 20 h, read-out: MIC)?
Answer: 0.016 µg/mL (≈ 0.0251 µM)

Question: What about the MIC ([23]; read-out: MIC) of the same compound?
Answer: ≤ 0.008 µg/mL

Question: What about the MIC ([24]; read-out: MIC) of the same compound?
Answer: ≤ 0.008 µg/mL

Question: What about the “Decomposition Rate” value ([25]; storage period (50°C): 0) of the same compound?
Answer: 0%

Question: And the “Decomposition Rate” value ([25]; storage period (50°C): 1 week)?
Answer: 0.4%

Question: And the “Decomposition Rate” value ([25]; storage period (50°C): 2 week)?
Answer: 0.9%
